In ChEMBL document CHEMBL1139194, “Antitumor agents. 256. Conjugation of paclitaxel with other antitumor agents: evaluation of novel conjugates as cytotoxic agents” (Bioorg Med Chem Lett, 2007):
Calls of active or inactive are those of the source. The calls are words filed in the database; no cut-off is given here.

How the values were obtained:
[1] = tested on: A549; test: Cytotoxicity against human A549 cells by sulforhodamine B assay; type: functional; settings: read-out: ED50 (the source's name)
[2] = tested on: 1A9; test: Cytotoxicity against human 1A9 cells by sulforhodamine B assay; type: functional; settings: read-out: ED50 (the source's name)
[3] = tested on: HUVEC; test: Antiangiogenesis activity against HUVEC cells; type: functional; settings: Homo sapiens, read-out: ED50 (the source's name)
[4] = (§1) Cytotoxicity against multi drug-resistant human KBVIN cells by sulforhodamine B assay; type: functional; settings: read-out: ED50 (the source's name)
[5] = tested on: KB; test: Cytotoxicity against human KB cells by sulforhodamine B assay; type: functional; settings: read-out: ED50 (the source's name)
[6] = tested on: PC-3; test: Cytotoxicity against human PC3 cells by sulforhodamine B assay; type: functional; settings: read-out: ED50 (the source's name)
[7] = Cytotoxicity against multi drug-resistant human KBVIN cells at 20 ug/mL by sulforhodamine B assay; type: functional
[8] = tested on: MCF7; test: Cytotoxicity against human MCF7 cells by sulforhodamine B assay; type: functional; settings: read-out: ED50 (the source's name)
[9] = tested on: LNCaP; test: Cytotoxicity against human LNCAP cells by sulforhodamine B assay; type: functional; settings: read-out: ED50 (the source's name)
[10] = tested on: DU-145; test: Cytotoxicity against human DU145 cells by sulforhodamine B assay; type: functional; settings: read-out: ED50 (the source's name)
[11] = Cytotoxicity against human MRC5 cells by sulforhodamine B assay; type: cell-based; settings: read-out: ED50 (the source's name)
[12] = tested on: KBVIN; test: as §1; type: functional

Row | SMILES | EC50 [1] | EC50 [2] | EC50 [3] | EC50 [4] | EC50 [5] | EC50 [6] | inhibition at 20 µg/mL [7] | EC50 [8] | EC50 [9] | EC50 [10] | CC50 [11] | Activity [12]
1 | COc1ccc2c(c1)[C@@H](/N=C/c1ccc(C(=O)O[C@H]3C[C@H]4OC[C@@]4(OC(C)=O)[C@H]4[C@H](OC(=O)c5ccccc5)[C@]5(O)C[C@H](OC(=O)[C@H](O)[C@@H](NC(=O)c6ccccc6)c6ccccc6)C(C)=C([C@@H](OC(C)=O)C(=O)[C@]34C)C5(C)C)cc1)CCc1cc(OC)c(OC)c(OC)c1-2 | 3.8 nM | 2.3 nM | 293 nM | 308 nM | 2.3 nM | – | – | – | – | – | – | –
2 | COc1cc2c(c(OC)c1OC(=O)CCC(=O)O[C@@H](C(=O)O[C@H]1C[C@@]3(O)[C@@H](OC(=O)c4ccccc4)[C@@H]4[C@]5(OC(C)=O)CO[C@@H]5C[C@H](O)[C@@]4(C)C(=O)[C@H](OC(C)=O)C(=C1C)C3(C)C)[C@@H](NC(=O)c1ccccc1)c1ccccc1)-c1ccc(SC)c(=O)cc1[C@@H](NC(C)=O)CC2 | 23.2 nM | 10.3 nM | 9.33 nM | – | 17 nM | 71.8 nM | < 50% | 24.7 nM | 19.5 nM | 29.8 nM | – | –
3 | COc1cc2c(c(OC)c1O)-c1ccc(SC)c(=O)cc1[C@@H](NC(C)=O)CC2 | 99.8 nM | 43.6 nM | – | 7430 nM | 47.9 nM | 112 nM | – | 59.9 nM | 59.9 nM | 114 nM | – | –
4 | COc1cc([C@@H]2c3cc4c(cc3[C@@H](Nc3ccc(C(=O)NCCC(=O)O[C@H]5C[C@H]6OC[C@@]6(OC(C)=O)[C@H]6[C@H](OC(=O)c7ccccc7)[C@]7(O)C[C@H](OC(=O)[C@H](O)[C@@H](NC(=O)c8ccccc8)c8ccccc8)C(C)=C([C@@H](OC(C)=O)C(=O)[C@]56C)C7(C)C)cc3)[C@H]3COC(=O)[C@H]23)OCO4)cc(OC)c1O | 45.6 nM | 20.7 nM | – | – | 31.6 nM | 86.3 nM | < 50% | 43.9 nM | 22.1 nM | 83.4 nM | 3280 nM | –
5 | CC[C@@]1(O)C(=O)OCn2c1cc1c(c2=O)Cc2c-1nc1ccccc1c2CNCCC(=O)O[C@@H](C(=O)O[C@H]1C[C@@]2(O)[C@@H](OC(=O)c3ccccc3)[C@@H]3[C@]4(OC(C)=O)CO[C@@H]4C[C@H](O)[C@@]3(C)C(=O)[C@H](OC(C)=O)C(=C1C)C2(C)C)[C@@H](NC(=O)c1ccccc1)c1ccccc1 | 2.6 nM | 1.5 nM | 2.09 nM | 2050 nM | 1.9 nM | 3.1 nM | – | 2.7 nM | 1.2 nM | 2.3 nM | 6130 nM | –
6 | CC[C@@]1(O)C(=O)OCc2c1cc1n(c2=O)Cc2cc3ccccc3nc2-1 [CAMPTOTHECIN] | 6.9 nM | 3.2 nM | – | 15 nM | 20.9 nM | 16.7 nM | – | 3.2 nM | 2 nM | 10.9 nM | – | –
7 | COc1ccc2c(c1)[C@@H](/N=C/c1ccc(C(=O)O[C@@H](C(=O)O[C@H]3C[C@@]4(O)[C@@H](OC(=O)c5ccccc5)[C@@H]5[C@]6(OC(C)=O)CO[C@@H]6C[C@H](O)[C@@]5(C)C(=O)[C@H](OC(C)=O)C(=C3C)C4(C)C)[C@@H](NC(=O)c3ccccc3)c3ccccc3)cc1)CCc1cc(OC)c(OC)c(OC)c1-2 | 3.8 nM | 2.3 nM | 43 nM | 308 nM | 5.4 nM | – | – | – | – | – | – | –
8 | CC[C@@]1(O)C(=O)OCn2c1cc1c(c2=O)Cc2c-1nc1ccccc1c2/C=N/CCC(=O)O[C@@H](C(=O)O[C@H]1C[C@@]2(O)[C@@H](OC(=O)c3ccccc3)[C@@H]3[C@]4(OC(C)=O)CO[C@@H]4C[C@H](O)[C@@]3(C)C(=O)[C@H](OC(C)=O)C(=C1C)C2(C)C)[C@@H](NC(=O)c1ccccc1)c1ccccc1 | 2.6 nM | 1.6 nM | 0.73 nM | 62.4 nM | 1.3 nM | 14.8 nM | – | 26.7 nM | 3 nM | 3.7 nM | 178 nM | –
9 | COc1cc([C@@H]2c3cc4c(cc3[C@@H](Nc3ccc(C(=O)NCCCC(=O)O[C@H]5C[C@H]6OC[C@@]6(OC(C)=O)[C@H]6[C@H](OC(=O)c7ccccc7)[C@]7(O)C[C@H](OC(=O)[C@H](O)[C@@H](NC(=O)c8ccccc8)c8ccccc8)C(C)=C([C@@H](OC(C)=O)C(=O)[C@]56C)C7(C)C)cc3)[C@H]3COC(=O)[C@H]23)OCO4)cc(OC)c1O | 1320 nM | 104 nM | – | – | 347 nM | – | – | 125 nM | – | – | – | inactive
10 | COc1cc2c(c(OC)c1O)-c1ccc(OC)c(=O)cc1[C@@H](NC(C)=O)CC2 [2-DESMETHYLCOLCHICIN] | 951 nM | 184 nM | – | 29000 nM | 146 nM | 475 nM | – | 361 nM | 325 nM | 612 nM | – | –
11 | CC[C@@]1(O)C(=O)OCn2c1cc1c(c2=O)Cc2c-1nc1ccccc1c2C=O | 12.8 nM | 4.3 nM | – | 25 nM | 80.6 nM | 18.4 nM | – | 4.3 nM | 4.3 nM | 7.7 nM | – | –
12 | CC(=O)O[C@H]1C(=O)[C@@]2(C)[C@H]([C@H](OC(=O)c3ccccc3)[C@]3(O)C[C@H](OC(=O)[C@H](O)[C@@H](NC(=O)c4ccccc4)c4ccccc4)C(C)=C1C3(C)C)[C@]1(OC(C)=O)CO[C@@H]1C[C@@H]2O [PACLITAXEL] | 2.3 nM | 1 nM | – | 311 nM | 1.8 nM | 55.5 nM | – | 1.1 nM | 2.6 nM | 1.3 nM | – | –
13 | COc1cc([C@@H]2c3cc4c(cc3[C@@H](O[C@H]3O[C@H]5CO[C@H](C)O[C@@H]5[C@@H](O)[C@@H]3O)[C@H]3COC(=O)[C@H]23)OCO4)cc(OC)c1O | 1610 nM | 285 nM | – | 14400 nM | 1360 nM | 9450 nM | – | 11700 nM | 530 nM | 1600 nM | > 30 nM | –
14 | COc1cc([C@@H]2c3cc4c(cc3[C@@H](Nc3ccc(C(=O)NCCCC(=O)O[C@@H](C(=O)O[C@H]5C[C@@]6(O)[C@@H](OC(=O)c7ccccc7)[C@@H]7[C@]8(OC(C)=O)CO[C@@H]8C[C@H](O)[C@@]7(C)C(=O)[C@H](OC(C)=O)C(=C5C)C6(C)C)[C@@H](NC(=O)c5ccccc5)c5ccccc5)cc3)[C@H]3COC(=O)[C@H]23)OCO4)cc(OC)c1O | 23.7 nM | 8.1 nM | – | 6230 nM | 13.9 nM | 42.8 nM | – | 22.1 nM | 10.2 nM | 32.5 nM | 6170 nM | –
15 | CC[C@@]1(O)C(=O)OCn2c1cc1c(c2=O)Cc2c-1nc1ccccc1c2/C=N/CCCC(=O)O[C@@H](C(=O)O[C@H]1C[C@@]2(O)[C@@H](OC(=O)c3ccccc3)[C@@H]3[C@]4(OC(C)=O)CO[C@@H]4C[C@H](O)[C@@]3(C)C(=O)[C@H](OC(C)=O)C(=C1C)C2(C)C)[C@@H](NC(=O)c1ccccc1)c1ccccc1 | 1.9 nM | 1 nM | 0.98 nM | 56.3 nM | 1.5 nM | 19.4 nM | – | 34.1 nM | 0.34 nM | 1.9 nM | 244 nM | –
16 | COc1ccc2c(c1)[C@@H](NC(=O)CCC(=O)O[C@@H](C(=O)O[C@H]1C[C@@]3(O)[C@@H](OC(=O)c4ccccc4)[C@@H]4[C@]5(OC(C)=O)CO[C@@H]5C[C@H](O)[C@@]4(C)C(=O)[C@H](OC(C)=O)C(=C1C)C3(C)C)[C@@H](NC(=O)c1ccccc1)c1ccccc1)CCc1cc(OC)c(OC)c(OC)c1-2 | 28.5 nM | 14 nM | 15.8 nM | – | 21.6 nM | 70.4 nM | < 50% | 29.2 nM | 23.7 nM | 34.4 nM | – | –
17 | COc1cc2c(c(OC)c1OC(=O)CCC(=O)O[C@@H](C(=O)O[C@H]1C[C@@]3(O)[C@@H](OC(=O)c4ccccc4)[C@@H]4[C@]5(OC(C)=O)CO[C@@H]5C[C@H](O)[C@@]4(C)C(=O)[C@H](OC(C)=O)C(=C1C)C3(C)C)[C@@H](NC(=O)c1ccccc1)c1ccccc1)-c1ccc(OC)c(=O)cc1[C@@H](NC(C)=O)CC2 | 27.3 nM | 10.6 nM | 13.8 nM | – | 19 nM | 50.7 nM | < 50% | 26.5 nM | 12.9 nM | 31.9 nM | – | –
18 | COc1cc([C@@H]2c3cc4c(cc3[C@@H](N)[C@H]3COC(=O)[C@H]23)OCO4)cc(OC)c1O | 1070 nM | 739 nM | – | 2050 nM | 111 nM | 1230 nM | – | 686 nM | 680 nM | 3110 nM | – | –
19 | COc1cc([C@@H]2c3cc4c(cc3[C@@H](/N=C/c3ccc(C(=O)O[C@H]5C[C@H]6OC[C@@]6(OC(C)=O)[C@H]6[C@H](OC(=O)c7ccccc7)[C@]7(O)C[C@H](OC(=O)[C@H](O)[C@@H](NC(=O)c8ccccc8)c8ccccc8)C(C)=C([C@@H](OC(C)=O)C(=O)[C@]56C)C7(C)C)cc3)[C@H]3COC(=O)[C@H]23)OCO4)cc(OC)c1O | 111 nM | 60.1 nM | 230 nM | 6220 nM | 53.8 nM | 145 nM | – | 48.6 nM | 90.1 nM | 139 nM | – | –
20 | COc1cc([C@@H]2c3cc4c(cc3[C@@H](NCc3ccc(C(=O)O[C@H]5C[C@H]6OC[C@@]6(OC(C)=O)[C@H]6[C@H](OC(=O)c7ccccc7)[C@]7(O)C[C@H](OC(=O)[C@H](O)[C@@H](NC(=O)c8ccccc8)c8ccccc8)C(C)=C([C@@H](OC(C)=O)C(=O)[C@]56C)C7(C)C)cc3)[C@H]3COC(=O)[C@H]23)OCO4)cc(OC)c1O | 124 nM | 75.7 nM | – | 5200 nM | 87.4 nM | 192 nM | – | 68.2 nM | 128 nM | 168 nM | – | –
